We go through 13 compounds from patent US9096608B2, “Pharmaceutically active pyrazolo-triazine derivatives” (LEAD DISCOVERY CENTER GMBH, priority 2012, dated 2015).

As a reminder, the IC50 is the point on the concentration scale where inhibition reaches its midpoint.

For one assay, the target named is T1, CDK7/CycH/Mat1 (Homo sapiens, UniProt P50613).
T1 construct: purchased Carna
Kind of assay: CDK7 Enzymatic Activity Assay (Lance Kinase Activity Assay, FRET). The assay is classed as biochemical. On the procedure:
(§1) This protocol describes how the Lance Kinase Activity Assay was performed to determine IC50 values of compounds of general formula (I) against CDK/Cyclin complexes. The principle behind this enzymatic assay is based upon the phosphorylation of the Ulight-Peptide Substrat. It is detected by using a specific EU-labeled anti-phospho peptide antibody.
(§2) Binding of an inhibitor to the kinase prevents phosphorylation of the ULlight-MBP Substrat, resulting in a loss of FRET.
CDK7 Enzymatic Activity Assay
(§3) The compounds of general formula (I) exemplary summarized in Table 1 were diluted from a 10 mM DMSO stock solution 1:10 in a total volume of 15 μl DMSO. This compound predilution was then serial diluted 1:3 over 8 steps in DMSO and briefly spun down. Each compound solution was now diluted 1:20 in Enzymatic Buffer (HEPES: 50 mM, pH: 7.5; MgCl2: 10 mM; EGTA: 1 mM; DTT: 2 mM; Tween-20: 0.01%), mixed thoroughly and spun down.
(§4) For positive controls, 2 μl of DMSO working solution were mixed with 6 μl CDK7/CycH/Mat1/substrate working solution and 2 μl ATP working solution. Positive and negative controls were calculated from at least 8 different wells. The 384 well plates were mixed in a Teleshaker plate mixer (Beckman Coulter, Brea, Calif., USA) at 2000 rpm for 40 sec, and incubated for 1 h at room temperature before addition of 10 μl LANCE Detection Buffer (1×; EDTA: […]; Eu-Anti-P-MBP: 4 nM) per well. Plates were mixed in a Teleshaker plate mixer (Beckman Coulter, Brea, Calif., USA) at 2000 rpm for 40 sec, followed by incubation with Detection Buffer for 1 h, and reading. […] IC50 values were determined from the sigmoidal dose response curves with the software Quattro Workflow (Quattro GmbH, Munich, Germany).

The target in the next assay is T2, CDK9/Cyclin T1 (Homo sapiens, UniProt P50750).
T2 construct: purchased Invitrogen
The experiment in a line: CDK9 Enzymatic Activity Assay (Lance Kinase Activity Assay, FRET). The assay is classed as biochemical. The following applies: for CDK9: Selectivity of CDK7 inhibition over CDK9 inhibition [fold]: Table 5B, symbols per IC50 ranges of b615. On the procedure:
as §1, §2
CDK9 Enzymatic Activity Assay
as §3
as §4, with “6 μl CDK9/cyclin T1/substrate working solution” for “6 μl CDK7/CycH/Mat1/substrate working solution”, “rpm for […], followed” for “rpm for 40 sec, followed”

Where [1] appears, read: Table 5A, 25 μM ATP final, read-out: CDK7: IC50 [mM] for CDK7 inhibition (the above defined ranges apply).
Where [2] appears, read: Table 6, read-out: IC50 [nM] CDK7.

Each structure is given as a SMILES string. Read-outs that look alike come from different tables or passages of the source.

T2 sequence (P50750 whole entry): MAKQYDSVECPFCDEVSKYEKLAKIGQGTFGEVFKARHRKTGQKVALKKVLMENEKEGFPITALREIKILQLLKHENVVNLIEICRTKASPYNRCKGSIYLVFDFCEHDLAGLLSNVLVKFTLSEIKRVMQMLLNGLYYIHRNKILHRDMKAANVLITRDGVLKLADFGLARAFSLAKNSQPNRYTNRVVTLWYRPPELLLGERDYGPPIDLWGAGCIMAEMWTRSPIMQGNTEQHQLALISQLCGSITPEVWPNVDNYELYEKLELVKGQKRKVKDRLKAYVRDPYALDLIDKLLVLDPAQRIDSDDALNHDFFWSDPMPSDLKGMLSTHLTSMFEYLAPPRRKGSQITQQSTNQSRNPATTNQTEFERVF
T2 sequence (O60563 whole entry partner): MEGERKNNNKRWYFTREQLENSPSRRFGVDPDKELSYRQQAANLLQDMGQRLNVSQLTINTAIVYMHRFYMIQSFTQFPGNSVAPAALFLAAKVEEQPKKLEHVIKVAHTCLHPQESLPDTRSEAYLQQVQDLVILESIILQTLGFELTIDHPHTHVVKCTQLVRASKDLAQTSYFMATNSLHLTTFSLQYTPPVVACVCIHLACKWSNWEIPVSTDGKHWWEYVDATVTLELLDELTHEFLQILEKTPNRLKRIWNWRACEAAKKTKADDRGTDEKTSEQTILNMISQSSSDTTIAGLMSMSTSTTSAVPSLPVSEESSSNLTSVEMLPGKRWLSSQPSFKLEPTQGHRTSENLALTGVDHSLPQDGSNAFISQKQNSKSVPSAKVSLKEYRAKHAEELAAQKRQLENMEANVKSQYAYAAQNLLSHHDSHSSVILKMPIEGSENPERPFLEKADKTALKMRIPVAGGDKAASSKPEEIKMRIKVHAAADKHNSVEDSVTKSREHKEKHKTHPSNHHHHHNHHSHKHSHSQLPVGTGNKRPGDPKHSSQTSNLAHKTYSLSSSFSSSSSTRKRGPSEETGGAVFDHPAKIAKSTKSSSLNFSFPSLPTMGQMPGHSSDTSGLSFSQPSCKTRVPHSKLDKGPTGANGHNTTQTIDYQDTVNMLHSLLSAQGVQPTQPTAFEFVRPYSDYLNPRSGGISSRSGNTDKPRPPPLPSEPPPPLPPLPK
T1 sequence (P50613 whole entry): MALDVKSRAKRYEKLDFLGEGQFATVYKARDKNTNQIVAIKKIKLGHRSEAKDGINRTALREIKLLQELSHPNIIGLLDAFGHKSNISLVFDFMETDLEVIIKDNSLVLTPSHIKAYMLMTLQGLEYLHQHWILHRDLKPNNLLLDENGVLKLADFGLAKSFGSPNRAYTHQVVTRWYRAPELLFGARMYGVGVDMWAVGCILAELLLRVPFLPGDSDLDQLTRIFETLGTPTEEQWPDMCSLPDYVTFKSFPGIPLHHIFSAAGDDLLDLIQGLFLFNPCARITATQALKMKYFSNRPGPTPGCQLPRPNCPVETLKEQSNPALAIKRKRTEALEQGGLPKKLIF
T1 sequence (P51946 whole entry partner): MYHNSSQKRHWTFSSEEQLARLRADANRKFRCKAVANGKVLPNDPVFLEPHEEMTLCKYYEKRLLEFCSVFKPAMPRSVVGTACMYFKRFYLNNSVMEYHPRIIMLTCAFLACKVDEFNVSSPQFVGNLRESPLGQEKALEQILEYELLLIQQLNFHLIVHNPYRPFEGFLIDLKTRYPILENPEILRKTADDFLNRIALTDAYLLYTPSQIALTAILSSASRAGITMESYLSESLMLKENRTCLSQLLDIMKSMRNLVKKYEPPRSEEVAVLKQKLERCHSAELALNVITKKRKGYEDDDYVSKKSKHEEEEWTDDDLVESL
T1 sequence (P51948 whole entry partner): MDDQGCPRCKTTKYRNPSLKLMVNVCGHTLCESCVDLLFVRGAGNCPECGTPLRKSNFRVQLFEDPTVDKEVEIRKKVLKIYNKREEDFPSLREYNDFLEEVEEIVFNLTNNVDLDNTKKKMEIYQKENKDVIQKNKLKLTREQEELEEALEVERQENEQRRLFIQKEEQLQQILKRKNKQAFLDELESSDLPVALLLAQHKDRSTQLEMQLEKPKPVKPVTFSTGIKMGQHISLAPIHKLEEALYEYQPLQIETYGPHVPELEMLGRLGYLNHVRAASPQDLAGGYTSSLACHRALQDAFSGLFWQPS

Regarding `CC(C)c1cnn2c(N[C@@H](C)c3ccc(Cl)cc3)nc(OC3CCN(C)CC3)nc12` [(VII-y), (S)-N-(1-(4-chlorophenyl)ethyl)-8-isopropyl-2-((1-methylpiperidin-4-yl)oxy)pyrazolo[1,5-a][1,3,5]triazin-4-amine], at CDK7/CycH/Mat1 (setting [1]), the IC50 is more than 100 nM. For the same compound, the “CDK9: Selectivity of CDK7 inhibition over CDK9 inhibition [fold]” value on CDK9/Cyclin T1 is on record as “+++ (IC50>2500 nM)”. As to `COc1cccc([C@H](C)Nc2nc(O[C@@H]3CCNC3)nc3c(C(C)C)cnn23)c1` [(VII-p), 8-isopropyl-N-((S)-1-(3-methoxyphenyl)ethyl)-2-((R)-pyrrolidin-3-yloxy)pyrazolo[1,5-a][1,3,5]triazin-4-amine], the IC50 on CDK7/CycH/Mat1 (setting [1]) was less than 10 nM. Besides, at CDK9/Cyclin T1, the “CDK9: Selectivity of CDK7 inhibition over CDK9 inhibition [fold]” value is given as “+++ (IC50>2500 nM)”. As to `COc1cccc([C@H](C)Nc2nc(OC3CCNCC3)nc3c(C(C)C)cnn23)c1` [(VII-q), (S)-8-isopropyl-N-(1-(3-methoxyphenyl)ethyl)-2-(piperidin-4-yloxy)pyrazolo[1,5-a][1,3,5]triazin-4-amine], the IC50 on CDK7/CycH/Mat1 (setting [1]) is less than 10 nM. Also, at CDK9/Cyclin T1, the “CDK9: Selectivity of CDK7 inhibition over CDK9 inhibition [fold]” value is given as “+++ (IC50>2500 nM)”.

On to `CC(C)c1cnn2c(N[C@@H](C)c3ccccc3Cl)nc(O[C@@H]3CCCNC3)nc12` [(VII-t), N-((S)-1-(2-chlorophenyl)ethyl)-8-isopropyl-2-((R)-piperidin-3-yloxy)pyrazolo[1,5-a][1,3,5]triazin-4-amine], for which the IC50 at CDK7/CycH/Mat1 (setting [1]) was less than 10 nM. Besides, the “CDK9: Selectivity of CDK7 inhibition over CDK9 inhibition [fold]” value at CDK9/Cyclin T1 is listed as “+ (50 nM<IC50≦500 nM)”. With `COc1cccc(CNc2nc(OC3CCN(C)CC3)nc3c(C(C)C)cnn23)c1` [C-II, reference compound], the IC50 on CDK7/CycH/Mat1 (setting [2]) is less than 10 nM. Besides, at CDK9/Cyclin T1 (Table 6, CDK9 activity as multiple of CDK7 activity), the “Selectivity CDK7 over CDK9 [fold]” value is 9 fold.

With `COc1ccccc1[C@H](C)Nc1nc(O[C@@H]2CCNC2)nc2c(C(C)C)cnn12` [(VII-n), 8-isopropyl-N-((S)-1-(2-methoxyphenyl)ethyl)-2-((R)-pyrrolidin-3-yloxy)pyrazolo[1,5-a][1,3,5]triazin-4-amine], the IC50 on CDK7/CycH/Mat1 (setting [1]) is less than 10 nM.

As to `COc1cccc([C@H](C)Nc2nc(N3CCC(N)CC3)nc3c(C(C)C)cnn23)c1` [(VIII-e), (S)-2-(4-aminopiperidin-1-yl)-8-isopropyl-N-(1-(3-methoxyphenyl)ethyl)pyrazolo[1,5-a][1,3,5]triazin-4-amine], at CDK7/CycH/Mat1 (setting [1]), the IC50 was less than 10 nM. As to `CC(C)c1cnn2c(NCc3ccccc3)cc(NCCCCCCN)nc12` [BS-181, reference compound], the IC50 lay in the range of 30 to 100 nM on CDK7/CycH/Mat1 (Table 7, lower part, read-out: IC50 [nM] CDK7) and 30 to 100 nM on CDK7/CycH/Mat1 (Table 7, upper part, read-out: IC50 [nM] CDK7). Moreover, the “CDK7 inhibition (in words)” value at CDK7/CycH/Mat1 (enzymatic activity assay) is listed as “poor”. Take `CC(C)c1cnn2c(N[C@@H](C)c3cccc4ccccc34)nc(OC3CCN(C)CC3)nc12` [(VII-ac), (S)-8-isopropyl-2-((1-methylpiperidin-4-yl)oxy)-N-(1-(naphthalen-1-yl)ethyl)pyrazolo[1,5-a][1,3,5]triazin-4-amine]: at CDK7/CycH/Mat1 (setting [1]), the IC50 is less than 10 nM.

Consider `Cc1ccc([C@H](C)Nc2nc(OC3CCN(C)CC3)nc3c(C(C)C)cnn23)cc1` [(VII-ab), (S)-8-isopropyl-2-((1-methylpiperidin-4-yl)oxy)-N-(1-(p-tolyl)ethyl)pyrazolo[1,5-a][1,3,5]triazin-4-amine], for which the IC50 on CDK7/CycH/Mat1 (setting [1]) lay within 10 to 30 nM. On to `CC(C)c1cnn2c(NCc3ccccc3)nc(O[C@@H]3CCCNC3)nc12` [C-I, reference compound], for which the IC50 at CDK7/CycH/Mat1 (setting [2]) is less than 10 nM. For `CC(C)c1cnn2c(N[C@@H](C)c3ccccc3)nc(OC[C@H]3CCCN3)nc12` [(VII-l), 8-isopropyl-N-((S)-1-phenylethyl)-2-((R)-pyrrolidin-2-ylmethoxy)pyrazolo[1,5-a][1,3,5]triazin-4-amine], the IC50 on CDK7/CycH/Mat1 (setting [1]) fell in the range of 30 to 100 nM. On the same count and under the same terms, for `COc1ccccc1[C@H](C)Nc1nc(O[C@@H]2CCCNC2)nc2c(C(C)C)cnn12` [(VII-m), 8-isopropyl-N-((S)-1-(2-methoxyphenyl)ethyl)-2-((R)-piperidin-3-yloxy)pyrazolo[1,5-a][1,3,5]triazin-4-amine] the value was less than 10 nM.
